From patent US20030105115A1, “Novel pyridopyrimidines and uses thereof” (priority 2001, published 2003) come the findings set out here.

A short description of this data set: Hydroxyapatite assay (hydroxyapatite adsorption chromatography, bone-targeting potential). In kind it is physicochemical. Conditions: corrected retention K=(retention time-void time)/void on TSK-Gel HA 1000 HPLC column; linear gradient 10 mM to 500 mM sodium phosphate, 0.15 N NaCl, pH 6.8. The text has this:
Hydroxyapatite is the principal mineral component of bone. Hydroxyapatite adsorption chromatography is used as an assay to evaluate the bone-targeting potential of both individual bone-targeting moieties (“monomers”) and of pharmaceuticals incorporating bone-targeting groups.
The rentention time of the compound is expressed in terms of K=(retention time-void time)/void. This K value is corrected using two reference compounds to correct from inter-column and inter-system variation to obtain a K′ value.
Reference Compounds: K′ values were determined for known bone targeted compounds, the bisphosphonate, alendronate and tetracycline.

Take `NCCCC(O)(P(=O)(O)O)P(=O)(O)O` [Alendronate, alendronate]: the “K′ value” is on record as 3.7.
